Assays:
[1] = MTT/SRB cytotoxicity assay; assay type: cell-based; conditions: human, HepG2 cells; HepG2, after 48 h
Procedure: The MTT assay was performed to assess the cytotoxicity of the samples on the HepG2 cell line. Approximately 8000 cells per well were cultured in a 96-well plate for 24 h at 37 °C with 5 % CO2 in DMEM medium supplemented with 10 % FBS and 1 % antibiotic solution. The following day, cells were exposed to various dosages and concentrations ranging from 1 to 2500 μM, prepared using incomplete medium to achieve the desired concentrations. After a 24-h incubation period, 100 μL of 10 % trichloroacetic acid (TCA) was added to each well and incubated for 1 h. Then, the plate was washed with distilled water and allowed to dry at room temperature. MTT solution was added to each well at a final concentration of 0.04 % and was allowed to sit for 1 h. After an hour of incubation, the plate was air-dried at room temperature before being cleaned with 1 % (v/v) acetic acid to remove any remaining color. To solubilize the protein-bound dye, Tris base solution (pH = 10.5) was added to a well and shaken for 10 min on an orbital shaker. The protein-bound dye was then detected at 510 nm using an ELISA plate reader (iMark, Biorad, USA).
The cytotoxicity of the samples was evaluated using the HepG2 cell line, obtained from NCCS Pune, through the MTT assay. […] The results were measured at 540 nm and 660 nm using a Bio-Rad ELISA plate reader (USA). The IC50 value was calculated using GraphPad Prism 9 software. […]

[2] = tested on: HepG2 cell lines; experiment: Cellular apoptosis with flow cytometry (Annexin V-FITC/PI); assay type: cell-based, human; conditions: HepG2, IC50 dose
Procedure: HepG2 cell lines, obtained from NCCS Pune, were cultured and treated with the compound's IC-50 dosage. Post-treatment, the cells were divided into five groups: unstained cells, control group, annexin-only, PI-only, and treatment. The cells were then resuspended in 1X binding buffer at a concentration of 1 × 10^6 cells/mL. FITC and PI from Annexin V were added to the appropriately labeled tubes. According to Zhan et al., 1X binding buffer was added to each tube, and they were incubated for 15 min at room temperature. The samples were analyzed using a BD FACS Lyric™ flow cytometer within an hour.

[3] = tested on: HepG2 cells; experiment: Cellular uptake (fluorescence microscopy, flow cytometry); assay type: cell-based, human; conditions: HepG2, 50 and 100 μg/mL DAS, 1 and 4 h
Procedure: The cellular uptake of DAS polymeric micelles was evaluated by examining the uptake of DAS by HepG2, hepatocellular carcinoma, and murine melanoma cells after exposure to free DAS and DAS-PMs micelles. Cells were visualized under a fluorescence microscope, and the DAS fluorescence intensity in treated cells was measured using flow cytometry. Fluorescent micrographs depicted HepG2 cells that had been treated with free DAS and DAS-PMs for durations of 0, 1, and 4 h. […] This rise was in comparison to the control group. However, DAS-PMs may quickly accumulate in HepG2 cells, as indicated by the vivid green fluorescence—even just 1 h after. When cells were treated with DAS-PMs for 4 h, the fluorescence intensity increased much more than after 1 h. At the 1- and 4-h time points, the fluorescence intensity in cells treated with 100 μg/mL of DAS in DAS-PMs was considerably higher than that in cells treated with 50 μg/mL of DAS. The dose- and time-dependent rise in fluorescence intensity was quantitatively evaluated using flow cytometry on HepG2 cell lines, as illustrated in Fig. 12.

[4] = tested on: HepG2 cells; experiment: Cell cycle analysis with flow cytometry; assay type: cell-based, human; conditions: HepG2, 24 h at IC50
Procedure: Specimens were placed on cells and incubated for 24 h. The cells that were not subjected to any treatment were the control cells. After the set incubation duration, trypsin was applied to detach the cells. Subsequently, the cells were gathered in a 1.5-mL vial and rinsed with 500 μL of chilled PBS [39]. A suspension of approximately 10^6 cells was prepared by gently vortexing 100 μL of PBS, resulting in a monodispersed cell suspension with minimal aggregation. The cells were then fixed by adding this solution to centrifuge tubes containing 900 μL of 70 % ethanol on ice, followed by incubation at 4 °C for at least 2 h. Cells can be stored in 70 % ethanol at 4 °C for several weeks. According to Sun et al. after centrifugation post-fixation, the cell pellet was resuspended in 500 μL of Propidium Iodide (PI) staining solution (0.1 % (v/v) Triton X-100, 10 μg/mL PI, and 100 μg/mL DNase-free RNaseA in PBS). The mixture was incubated in the dark for 30 min at room temperature or 10 min at 37 °C. Finally, samples were analyzed using a flow cytometer.

[5] = In vivo pharmacokinetics; set-up: species or system Male Wistar rats; conditions: male, Wistar; for Cmax / Tmax: rat plasma
Procedure: Male Wistar rats, each weighing 200 ± 10 g, were obtained from the Experimental Animal Centre at NMIMS University. The study was conducted in accordance with the guidelines approved by the NMIMS University Animal Experimental Ethics Committee (protocol number SPTM/09/2023/IAEC/05). […] The total dose of DAS in two group was 5 mg/kg via intravenous. Blood samples (0.4 mL) were collected from the rats via intravenous injection at specified time intervals (0.5, 1, 2, 3, 4, 5, 6, 8, 10, and 12 h) and were immediately transferred into heparinized tubes. The samples were centrifuged at 12,000 rpm for 10 min to separate the plasma, which was then stored at −20 °C until analysis. The plasma samples were subsequently subjected to high-performance liquid chromatography (HPLC) to determine the concentration of dasatinib. The blood extraction process was conducted as follows: Initially, 15 μL of an internal standard solution (methanol, 10 μg/mL) was added to each tube containing 0.4 mL of blood, followed by vortexing for 1 min. Subsequently, 1 mL of acetonitrile was added, and the mixture was vortexed for an additional minute. The samples were then centrifuged at 12,000 rpm for 10 min. After centrifugation, the organic layer was carefully transferred to a sterile tube and evaporated under a gentle nitrogen stream. The dried extracts were reconstituted in 0.4 mL of a methanol/water solution (70/30, v/v) before undergoing high-performance liquid chromatography (HPLC) analysis. The pharmacokinetic parameters were calculated using the DAS 2.1.1 software (Shanghai, China).

[6] = In vitro release of dasatinib (dialysis bag); assay type: physicochemical; conditions: 12 h, pH 7.4, 37 °C
Procedure: To imitate the journey of polymeric micelles through the gastrointestinal tract, an in vitro drug release test was conducted. To simulate drug release from polymeric micelles, a release test was conducted using a phosphate buffer solution at pH 7.4 over 12 h, starting at the 0.5-h mark. The pH of human blood and most bodily tissues is roughly 7.4. Performing the release research at this pH allows us to forecast how dasatinib will behave once taken into the bloodstream and dispersed throughout the body. […] This information aids in evaluating how much of the drug can reach the systemic circulation for therapeutic activity. Each test was performed in a medium containing 0.5 % w/v Tween 20 to maintain sink conditions. A dialysis bag containing 1 mL of a freshly prepared dispersion of dasatinib-loaded micelles was sealed with clips and placed into a glass container filled with 90 mL of […]. This setup was incubated in a water bath set at 37 °C with agitation at 150 rotations per minute. At specified time intervals ([…]), 5 mL samples of the release medium were withdrawn and replaced with fresh medium to maintain volume consistency. The amount of drug released was measured by analyzing the UV absorbance of the samples at 323 nm. A standard curve for […] in each medium was used for the quantification. […]

[7] = tested on: HepG2 cells; experiment: ROS estimation with flow cytometry (DCFDA); assay type: cell-based, human; conditions: HepG2, 24 h, Control 1 %
Procedure: Cells were seeded into six-well plates at densities ranging from 5000 to 10,000 HepG2 cells per well, using 1 mL of DMEM media supplemented with 10 % FBS and 1 % antibiotic solution. The plates were then incubated at 37 °C with 5 % CO2 for 24 h. Prior to treatment, the old culture medium was replaced with fresh medium, designating untreated cells as controls. Following the protocol by Gupta et al. cells were treated with various agents and further incubated for 24 h. After incubation, the medium was removed, and cells were detached using trypsin-EDTA, transferred to 1.5 mL tubes, and washed with 500 μl of cold PBS. The cell pellet was resuspended in 100 μl of PBS containing 2 μM DCFDA, and samples were incubated for 1 h before analysis using a BD FACS Calibur flow cytometer (USA). Data were processed using version 2.5.1 of the Flowing software program.

[8] = tested on: HepG2 liver cell lines; experiment: In-vitro scratch assay; assay type: cell-based, human; conditions: HepG2, after 48 h of treatment
Text: The aim of the in-vitro scratch test is to assess how effectively cancer cell growth is curbed.

[9] = plasma, rat, 5 mg/kg via intravenous

Cmax ([5]; intravenous, 5 mg/kg): 12330 ± 60 ng/mL | Tmax ([5]; intravenous, 5 mg/kg): 2 h | MRT [5, 9]: 3.3 h | half-life [5, 9]: 4.08 ± 0.786 h | Cmax ([5]; 5 mg/kg via intravenous): 12300 ± 2310 ng/mL | Tmax ([5]; 5 mg/kg via intravenous): 2 h | drug released [6]: 40%
Compound: Cc1nc(Nc2ncc(C(=O)Nc3c(C)cccc3Cl)s2)cc(N2CCN(CCO)CC2)n1 [DAS, dasatinib]
viability at 48 h [1]: 12.2 ± 0.63% | early apoptotic cells ([2]; control 3.38 %): 0.6% | necrotic cells ([2]; control 13.28 %): 18.1% | late apoptotic cells ([2]; control 19.56 %): 72.4% | fluorescence intensity (cellular uptake) [3]: slight rise in fluorescence intensity | percentage of cells in G2 phase ([4]; control 18.14 %): 11.94% | percentage of cells in S phase ([4]; control 20.04 %): 14.22% | percentage of cells in G1 phase ([4]; control 58.18 %): 67.14% | ROS, MFI-positive cells [7]: 3.09% | cell migration (scratch wound) [8]: curbed cell migration

Reference: publication PMC11570312, “Development, optimization, and characterization of polymeric micelles to improve dasatinib oral bioavailability: Hep G2 cell cytotoxicity and in vivo pharmacokinetics for targeted liver cancer therapy” (Heliyon, 2024)
